Tested on: HEK293 cells
Test: Resazurin based cell viability assay, Nutlin-3a
Conditions: 72 h incubation, HEK293 and HEK293_CMKLR1-eYFP
Description: performed in DMEM with 10% FBS due to its higher pH buffering capacity compared to DMEM/F12 with […]
Calcium flux assay was performed with cells expressing CMKLR1 and the chimeric G protein Δ6Gαqi4myr.
The stably transfected COS-7_CMKLR1-eYFP_ Δ6Gαqi4myr cells were seeded at 25,000 cells per well into poly-ᴅ-lysine-coated 96-well plates (black µCLEAR, Greiner). The next day, cells were incubated with 2.3 µM Fluo-2-AM (Abcam) and 0.06% (v/v) Pluronic-F127 (Sigma) in assay buffer (2.5 mM probenecid (Sigma), 20 mM 4-(2-hydroxyethyl)-1-piperazineethanesulfonic acid (HEPES, Sigma) in Hanks' Balanced Salt Solution (HBSS, Biowest), pH 7.5) for 1 h. This solution was replaced by assay buffer, and basal Ca2+ signal (λex = 485 nm, λem = 525 nm) was measured for 20 s with a Flexstation 3 plate reader (Molecular Devices). Peptide dilutions were added, and the Ca2+ response was measured for 40 s. The maximum signal over baseline was calculated and normalized to peptide 1 (N3-cC9). Non-linear regression was performed using Prism 10 (GraphPad). Experiments were performed in technical duplicates and at least […]
Cells were then washed and a resazurin-based cell viability assay was performed. […] After 2h incubation, cell viability wa s measured using the fluorescence of resorufin (λex = 550 nm, λem = 595 nm). […]
Peptide internalization was evaluated by fluorescence microscopy. […]

COc1ccc(C2=N[C@@H](c3ccc(Cl)cc3)[C@@H](c3ccc(Cl)cc3)N2C(=O)N2CCNC(=O)C2)c(OC(C)C)c1 [nutlin-3a]
cytotoxicity: noncytotoxic response
